From ChEMBL document CHEMBL1155862, “High affinity conformationally constrained nociceptin/orphanin FQ(1-13) amide analogues” (J Med Chem, 2008)
Peptide text beside a SMILES is read from it.

Legend:
Nociceptin receptor [1] = target: T1, Nociceptin receptor (Homo sapiens, UniProt P41146); assay: Agonist activity at human NOP receptor by [35S]GTPgammaS binding assay; format: functional
Nociceptin receptor [2] = target: T1, Nociceptin receptor; assay: Binding affinity to human NOP receptor
Nociceptin receptor [3] = target: T1, Nociceptin receptor; assay: Displacement of [3H]N/OFQ from human NOP receptor expressed in CHO cells; format: cell-based
Nociceptin receptor [4] = target: T1, Nociceptin receptor; assay: Agonist activity at human NOP receptor expressed in CHO cells assessed as stimulation of [35S]GTPgammaS binding; format: functional, cell-based
Nociceptin receptor [5] = target: T1, Nociceptin receptor; assay: Agonist activity at human NOP receptor expressed in CHO cells assessed as stimulation of [35S]GTPgammaS binding relative to nociceptin/orphanin FQ (1-13)NH2 peptide; format: functional, cell-based

T1 sequence (P41146 whole entry): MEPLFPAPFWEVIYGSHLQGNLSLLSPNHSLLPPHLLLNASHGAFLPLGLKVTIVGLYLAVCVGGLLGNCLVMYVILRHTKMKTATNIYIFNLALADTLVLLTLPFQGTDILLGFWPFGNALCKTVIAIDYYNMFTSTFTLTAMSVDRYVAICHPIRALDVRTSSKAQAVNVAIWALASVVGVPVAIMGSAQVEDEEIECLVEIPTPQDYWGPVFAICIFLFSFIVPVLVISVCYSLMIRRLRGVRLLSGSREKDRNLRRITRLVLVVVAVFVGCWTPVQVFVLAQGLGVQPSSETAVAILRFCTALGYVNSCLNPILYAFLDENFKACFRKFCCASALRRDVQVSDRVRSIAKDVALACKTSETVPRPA

C[C@H](NC(=O)[C@@H]1CSSC[C@H](NC(=O)CNC(=O)[C@@H](NC(=O)[C@H](Cc2ccccc2)NC(=O)CNC(=O)CNC(=O)[C@@H](N)Cc2ccccc2)[C@@H](C)O)C(=O)N[C@@H](CCCN=C(N)N)C(=O)N[C@@H](CCCCN)C(=O)N1)C(=O)N[C@@H](CCCN=C(N)N)C(=O)N[C@@H](CCCCN)C(N)=O (HELM PEPTIDE1{F.G.G.F.T.G.C.R.K.C.A.R.K.[am]}$PEPTIDE1,PEPTIDE1,7:R3-10:R3$$$V2.0)
EC50 (Nociceptin receptor [1]): 0.69 nM
Ki (Nociceptin receptor [2]): 0.1 nM

H-FGGFTDARKKARK-NH2
Ki (Nociceptin receptor [3]): 0.54 nM
EC50 (Nociceptin receptor [4]): 22.3 nM
Activity (Nociceptin receptor [5]): 122%

C[C@H](NC(=O)[C@@H]1CCCCNC(=O)C[C@H](NC(=O)[C@@H](NC(=O)[C@H](Cc2ccccc2)NC(=O)CNC(=O)CNC(=O)[C@@H](N)Cc2ccccc2)[C@@H](C)O)C(=O)N[C@@H](C)C(=O)N[C@@H](CCCNC(=N)N)C(=O)N[C@@H](CCCCN)C(=O)N1)C(=O)N[C@@H](CCCNC(=N)N)C(=O)N[C@@H](CCCCN)C(N)=O (HELM PEPTIDE1{F.G.G.F.T.D.A.R.K.K.A.R.K.[am]}$PEPTIDE1,PEPTIDE1,6:R3-10:R3$$$V2.0)
Activity (Nociceptin receptor [5]): 80%

C[C@H](NC(=O)[C@@H]1CCCCNC(=O)C[C@H](NC(=O)CNC(=O)[C@@H](NC(=O)[C@H](Cc2ccccc2)NC(=O)CNC(=O)CNC(=O)[C@@H](N)Cc2ccccc2)[C@@H](C)O)C(=O)N[C@@H](CCCNC(=N)N)C(=O)N[C@@H](CCCCN)C(=O)N1)C(=O)N[C@@H](CCCNC(=N)N)C(=O)N[C@@H](CCCCN)C(N)=O
Activity (Nociceptin receptor [5]): 92%

C[C@H](NC(=O)[C@@H]1CCCCNC(=O)C[C@@H](NC(=O)CNC(=O)[C@@H](NC(=O)[C@H](Cc2ccccc2)NC(=O)CNC(=O)CNC(=O)[C@@H](N)Cc2ccccc2)[C@@H](C)O)C(=O)N[C@@H](CCCNC(=N)N)C(=O)N[C@@H](CCCCN)C(=O)N1)C(=O)N[C@@H](CCCNC(=N)N)C(=O)N[C@@H](CCCCN)C(N)=O
Ki (Nociceptin receptor [3]): 0.27 nM
EC50 (Nociceptin receptor [4]): 1.6 nM

C[C@H](NC(=O)[C@H](CCCCN)NC(=O)[C@H](CCCCN)NC(=O)[C@H](CCCNC(=N)N)NC(=O)[C@@H](CC(=O)O)NC(=O)CNC(=O)[C@@H](NC(=O)[C@H](Cc1ccccc1)NC(=O)CNC(=O)CNC(=O)[C@@H](N)Cc1ccccc1)[C@@H](C)O)C(=O)N[C@@H](CCCNC(=N)N)C(=O)N[C@@H](CCCCN)C(N)=O
Activity (Nociceptin receptor [5]): 100%

C[C@H](NC(=O)[C@@H]1CSSC[C@H](NC(=O)[C@@H](NC(=O)[C@H](Cc2ccccc2)NC(=O)CNC(=O)CNC(=O)[C@@H](N)Cc2ccccc2)[C@@H](C)O)C(=O)N[C@@H](C)C(=O)N[C@@H](CCCNC(=N)N)C(=O)N[C@@H](CCCCN)C(=O)N1)C(=O)N[C@@H](CCCNC(=N)N)C(=O)N[C@@H](CCCCN)C(N)=O (HELM PEPTIDE1{F.G.G.F.T.C.A.R.K.C.A.R.K.[am]}$PEPTIDE1,PEPTIDE1,6:R3-10:R3$$$V2.0)
Ki (Nociceptin receptor [2]): 0.83 nM

C[C@H](NC(=O)[C@H](CCCCN)NC(=O)[C@H](CCCCN)NC(=O)[C@H](CCCN=C(N)N)NC(=O)[C@@H](CC(=O)O)NC(=O)CNC(=O)[C@@H](NC(=O)[C@H](Cc1ccccc1)NC(=O)CNC(=O)CNC(=O)[C@@H](N)Cc1ccccc1)[C@@H](C)O)C(=O)N[C@@H](CCCN=C(N)N)C(=O)N[C@@H](CCCCN)C(N)=O
Ki (Nociceptin receptor [3]): 1.79 nM
EC50 (Nociceptin receptor [4]): 106 nM

C[C@H](NC(=O)[C@@H]1CCCCNC(=O)C[C@H](NC(=O)[C@@H](NC(=O)[C@H](Cc2ccccc2)NC(=O)CNC(=O)CNC(=O)[C@@H](N)Cc2ccccc2)[C@@H](C)O)C(=O)N[C@@H](C)C(=O)N[C@@H](CCCN=C(N)N)C(=O)N[C@@H](CCCCN)C(=O)N1)C(=O)N[C@@H](CCCN=C(N)N)C(=O)N[C@@H](CCCCN)C(N)=O (HELM PEPTIDE1{F.G.G.F.T.D.A.R.K.K.A.R.K.[am]}$PEPTIDE1,PEPTIDE1,6:R3-10:R3$$$V2.0)
Ki (Nociceptin receptor [3]): 0.34 nM
EC50 (Nociceptin receptor [4]): 4.12 nM
